Converted amounts (≈) assume the structure as drawn. Marks after values point to notes of the source that are not given here.
What was measured:
[1] = system: cervical carcinoma cell line (Ca Ski); test: cells; format: cell-based; details: Homo sapiens, isolated compounds, 72 h, neutral red, mean ± SD of three replicates, read-out: IC50 (μg/mL) Ca Ski
Method: (§1) The human cancer cells KB, Ca Ski, MCF-7, HCT-116, A549, and noncancer human cell lines (MRC-5) were purchased from the American Tissue Culture Collection (ATCC, USA). The supplemented RPMI 1640 media and eagle minimum essential medium (EMEM) were purchased from Sigma-Aldrich, USA. The supplements or antibiotics such as foetal bovine serum (FBS), penicillin/streptomycin (P/S) (100 μg/mL), amphotericin B (50 μg/mL), and accutase were purchased from PAA Laboratories, Austria. Sodium pyruvate (11 mg/mL) purchased from Sigma-Aldrich, USA. The cells were cultured in a SHEL LAB water-jacketed CO2 incubator with […] tissue culture flasks (Nunc, Denmark), which was observed routinely under inverted microscope (Leica DMI3000 B, Germany) for any contamination and seeded into 96-well flat bottom microtiter plate (Nunc, Denmark). The extract or pure compounds was dissolved in dimethyl sulfoxide (DMSO, Molecular Biology Grade, >99.9%) from Sigma-Aldrich, USA. Microtiter plate incubator shaker (LT Biomax 500) was used and absorbance was measured at 540 nm using an ELISA microplate reader (EMax microplate reader of Molecular Devices, USA). MCF-7 and Ca Ski were cultured in RPMI 1640 media supplemented with 10% v/v FBS, P/S, and amphotericin B and MRC-5 in EMEM media with 10% v/v FBS, P/S, amphotericin B, and sodium pyruvate. The cells were cultured in tissue culture flask in 5% CO2 incubator kept at 37°C in a humidified atmosphere and observed routinely under inverted microscope from any contaminations. Each fresh medium was replaced every 2 or 3 days until cell confluence was achieved and the cells were detached by using accutase.
(§2) The in vitro cytotoxicity activity was performed using the neutral red cytotoxicity assay based on the initial protocol as described earlier with some modifications. Briefly, cells were detached from the tissue culture flask with 1.0 mL solution of accutase and PBS solution. The cell pellet was obtained by centrifugation at 1,000 rpm for 5 minutes. The density of the viable cells was counted by 0.4% of trypan blue exclusion in a haemocytometer. Cells were then plated in 96-well microtiter plate (Nunc), at a concentration of 1 × 10^4 cells/well and incubated in a CO2 incubator at 37°C to allow the cells to adhere. After 24 h, the cells were treated with six different concentrations, that is, 1, 10, 25, 50, 75, and 100 μg/mL of each tested agent in three replicates. The plates were incubated for 72 h at 37°C in a 5% CO2 incubator. The untreated cells were regarded as a negative control, whilst cells incubated only with DMSO (0.5%, v/v) were used as a vehicle control. No effect due to the DMSO was observed. Doxorubicin was used as the positive control. After 72 h, the old medium was substituted with fresh medium containing 50 μg/mL neutral red. The 96-well plates were placed into incubator for 3 h. This is to allow the uptake of the vital dye into the lysosomes of viable and undamaged cells. Then, the media was discarded and cells were washed with 200 μL of neutral red washing solution. The dye was eluted from the cells by adding neutral red resorb solution (200 μL). The plate was further incubated for 30 min with rapid agitation on a microtiter plate shaker. The optical density (OD) of the eluted dye was read at 540 nm using a microplate reader. The experiments were conducted in triplicates. The percentage of inhibition of each of the test samples was calculated according to the following formula using the OD values obtained: percentage of inhibition (%) = (OD control − OD sample)/OD control × 100%. The average of three replicates was then obtained. Cytotoxicity of each test agent is expressed as IC50 value. The IC50 value is the concentration of test agents that cause 50% inhibition or cell death, averaged from the three experiments. The IC50 for each extract was extrapolated from the graphs of the percentage inhibition versus concentration of test agents.

[2] = system: hormone-dependent breast cancer cell line (MCF-7); test: cells; format: cell-based; details: Homo sapiens, MCF7; isolated compounds, 72 h, neutral red, mean ± SD of three replicates; read-out: IC50 (μg/mL) MCF-7
Method: as §1, §2

[3] = system: Ca Ski cells; test: Hoechst 33342/PI dual staining, quantification of apoptotic/necrotic cells, Ca Ski; format: cell-based, human; details: 48 h
Method: Briefly, cells were grown on tissue culture dishes and treated with or without tested compounds at concentrations of 12.5, 25, 40, and 50 μg/mL. After 48 hours, the cells were harvested and washed with cold PBS to a density of 5 × 10^5 cells/mL. The cells were suspended in Hoechst 33342 solution (10 μg/mL) and were incubated at 37°C in CO2 for 7 minutes. After incubation with Hoechst 33342, the cells were counter stained with propidium iodide (2.5 μg/mL). The samples were maintained in the dark for 15 minutes. After staining, an aliquot of cell suspension was placed on a glass microscope slides. The slides were observed immediately under inverted fluorescence microscope (DM16000B, Germany) using UV/488 dual excitation and the fluorescence was measured at ~460 nm emission of Hoechst 33342 dye and >575 nm emission of propidium iodide at 630x magnification. At least 200 total target cells were counted and the numbers of each four cellular states were recorded and analyzed using fluorescence microscopy for quantification of apoptosis and necrosis. The experiment was conducted in triplicates. The percentages of apoptotic and necrotic cells were determined according to the following formula [27]: (1) Percentage of Apoptotic Cells (%) =(LA+DA)/ LN+LA+DN+DA×100,Percentage of Necrotic Cells (%) = DN/LN+LA+DN+DA×100, where LN are live target cells with normal nuclei (Hoechst 33342/PI: blue chromatin with organized structure), LA are live cells with apoptotic nuclei (Hoechst 33342/PI: bright blue chromatin that is highly condensed or fragmented), DN are dead cells with normal nuclei (Hoechst 33342/PI: pink chromatin with organized structure), and DA are dead cells with apoptotic nuclei (Hoechst 33342/PI: bright pink chromatin that is, highly condensed or fragmented).

[4] = system: active caspase-3 in HCT-116 cells; test: Flow cytometric active caspase-3 assay, HCT-116; format: cell-based, human
Method: Caspases are key mediators of cell death. Caspase-3 activity assay was performed using FITC Active Caspase-3 Apoptosis Kit (BD Pharmingen). These probes bind covalently and irreversibly to the active site of the active caspase heterodimer emitting the green fluorescent signal detected by the FL-1 channel. Briefly, the cancer cells were treated with curzerenone (25, 40, and 50 μg/mL) and alismol (12.5, 25, and 40 μg/mL) for 48 h. The assay was performed based on the manufacturer's protocol. Cells were analyzed using BD Accuri C6 flow cytometry and BD CFlow software.

| SMILES | IC50 [1] [µg/mL] | IC50 [2] [µg/mL] | Percentage of apoptotic cells (%) ([3]; 12.5 μg/mL) | Percentage of necrotic cells (%) ([3]; 12.5 μg/mL) | Percentage of apoptotic cells (%) ([3]; 25 μg/mL) | Percentage of necrotic cells (%) ([3]; 25 μg/mL) | Percentage of apoptotic cells (%) ([3]; 40 μg/mL) | Percentage of necrotic cells (%) ([3]; 40 μg/mL) | Percentage of apoptotic cells (%) ([3]; 50 μg/mL) | Percentage of necrotic cells (%) ([3]; 50 μg/mL) | Percentage of apoptotic cells (%) ([3]; 50 μg/mL, listed as curzerenone) | highest increment in caspase-3 activity compared to untreated cells ([4]; HCT-116, 48 h, concentration not given) [folds] | Percentage of apoptotic cells (%) ([3]; 25 μg/mL, listed as alismol) | Percentage of necrotic cells (%) ([3]; 50 μg/mL, listed as alismol) | highest increment of caspase-3 activity ([4]; HCT-116, 40 μg/mL, 48 h) [folds] |
| --- | --- | --- | --- | --- | --- | --- | --- | --- | --- | --- | --- | --- | --- | --- | --- |
| C=CC1(C)Cc2occ(C)c2C(=O)C1C(=C)C (stereo not shown) [Curzerenone, curzerenone] | 8.9 ± 0.7 (≈ 38.6 µM) | 40 ± 0.5 (≈ 174 µM) | 4.82 ± 0.59^a % | 3.50 ± 1.30^a % | 7.89 ± 1.77^b % | 5.57 ± 1.10^b % | 39.67 ± 1.89^c % | 11.83 ± 2.10^c % | 54.67 ± 1.76^d % | 16.33 ± 1.0^d % | 54.7 ± 1.8 | 100 |  |  |  |
| C=C1CCC(C(C)C)=CC2C1CC[C@@]2(C)O (stereo partly shown) [Alismol, alismol] | 8.7 ± 1.1 (≈ 39.5 µM) | 10 ± 0.7 (≈ 45.4 µM) | 8.83 ± 0.58^a % | 5.83 ± 1.50^a % | 53.67 ± 1.76^d % | 14.00 ± 3.50^b % | 41.67 ± 0.76^c % | 45.33 ± 0.60^c % | 32.67 ± 1.04^b % | 60.33 ± 1.00^d % |  |  | 53.7 ± 1.8 | 60.3 ± 1.0 | 45 |

Source: publication PMC3671673, “In Vitro Morphological Assessment of Apoptosis Induced by Antiproliferative Constituents from the Rhizomes of Curcuma zedoaria” (Evidence-based Complementary and Alternative Medicine : eCAM, 2013)
